Results reported in article PMC10098121, “Amphipathic barbiturates as marine product mimics with cytolytic and immunogenic effects on head and neck squamous cell carcinoma cell lines” (Frontiers in Pharmacology, 2023).
Like-named read-outs stand apart in the source and are kept apart here.

What was measured:
UT-SCC-42A = experiment: High throughput drug screening (CellTiter-Glo, DSS); assay type: cell-based, human; conditions: for drug sensitivity score (DSS): 72 h, 10-100,000 nM, myogel, non-irradiated; for delta DSS (ΔDSS): DSS irradiated (2 Gy) minus DSS non-irradiated, >5 synergy, <–5 antagonism
Experimental: (§1) The MPMs were screened against a panel of […] different cell lines (HSC-3, UT-SCC-8, UT-SCC-24A, UT-SCC-24B, UT-SCC-42A, UT-SCC-42B and NOF) at the High Throughput Biomedicine Unit (HTB) at the Institute for Molecular Medicine Finland (FIMM). On day 1, black-walled 384-well plates were coated with 5 µl diluted myogel (0.5 mg/ml) per well using an automated reagent dispenser (MultiFlo FX, BioTek, Winooski, VT, United States). On day 2, 500 cells per well were seeded in 20 µl of complete media using the MultiFlo FX (BioTek), and the cells were left to adhere overnight. On day 3, the MPMs, cisplatin, DMSO and Benzethonium chloride were added to the cells using an automatic liquid handler (Echo 550, Labcyte Inc., San Jose, CA, United States). Cisplatin and the MPMs were added to yield five different concentrations in a ten-fold dilution series ranging from 10 to 100,000 nM. Each concentration was tested in triplicate wells. DMSO (0.1%) and benzethonium chloride (100 µM) served as negative and positive control, respectively. Three hours later, some of the plates were irradiated with 2 Gy in a gamma irradiator (OB29/4, STS, Braunschweig, Germany). All plates were taken to the irradiation room to ensure similar handling of the plates. 72 h later, the plates were cooled to room temperature before 25 µl of CellTiter-Glo 2.0 reagent (Promega, Madison, WI, USA) was added to each well using the MultiFlo FX (BioTek). Next, the plates were centrifuged for 5 min at 1,000 rpm before the luminescence signal was measured with the PHERAstar FS HT reader (BMG LABTECH GmbH, Ortenberg, Germany). The raw data was analyzed with the Breeze software (https://breeze.fmm.fi), which normalized the luminescence signal from treated cells against the signal from negative and positive control cells to calculate the percentage of inhibition and generate dose-response curves, which were then used to calculate drug sensitivity scores (DSS). The DSS is a parameter which combines the IC50, the slope of the dose-response curve, and the minimum and maximum responses into a single metric, as previously described ([Yadav et al., 2014]). Quality control was performed by calculation of the Z′-factor, which was >0.7 for all cell lines, indicating high quality of the assay ([Zhang et al., 1999]).

UT-SCC-24A = experiment: as above; assay type: cell-based, human; conditions: for drug sensitivity score (DSS): 72 h, 10-100,000 nM, myogel, non-irradiated; for delta DSS (ΔDSS): DSS irradiated (2 Gy) minus DSS non-irradiated, >5 synergy, <–5 antagonism
Experimental: as §1

UT-SCC-106A = experiment: as above; assay type: cell-based, human; conditions: for drug sensitivity score (DSS): 72 h, 10-100,000 nM, myogel, non-irradiated; for delta DSS (ΔDSS): DSS irradiated (2 Gy) minus DSS non-irradiated, >5 synergy, <–5 antagonism
Experimental: as §1

UT-SCC-8 = experiment: as above; assay type: cell-based, human; conditions: for drug sensitivity score (DSS): UT-SCC-8, 72 h, 10-100,000 nM, myogel, non-irradiated; for delta DSS (ΔDSS): UT-SCC-8, DSS irradiated (2 Gy) minus DSS non-irradiated, >5 synergy, <–5 antagonism
Experimental: as §1

UT-SCC-42B = experiment: as above; assay type: cell-based, human; conditions: for drug sensitivity score (DSS): 72 h, 10-100,000 nM, myogel, non-irradiated; for delta DSS (ΔDSS): DSS irradiated (2 Gy) minus DSS non-irradiated, >5 synergy, <–5 antagonism
Experimental: as §1

HSC-3 = experiment: as above; assay type: cell-based, human; conditions: for drug sensitivity score (DSS): HSC-3, 72 h, 10-100,000 nM, myogel, non-irradiated; for delta DSS (ΔDSS): HSC-3, DSS irradiated (2 Gy) minus DSS non-irradiated, >5 synergy, <–5 antagonism
Experimental: as §1

[1] = tested on: NOF (normal oral fibroblasts); experiment: as above; assay type: cell-based, human; conditions: for drug sensitivity score (DSS): 72 h, 10-100,000 nM, myogel, non-irradiated; for delta DSS (ΔDSS): DSS irradiated (2 Gy) minus DSS non-irradiated, >5 synergy, <–5 antagonism
Experimental: as §1

UT-SCC-24B = experiment: as above; assay type: cell-based, human; conditions: for drug sensitivity score (DSS): 72 h, 10-100,000 nM, myogel, non-irradiated; for delta DSS (ΔDSS): DSS irradiated (2 Gy) minus DSS non-irradiated, >5 synergy, <–5 antagonism
Experimental: as §1

human red blood cells [2] = tested on: human red blood cells; design: method as in von Hofsten et al., 2022; conditions: highest concentration 500 μM; ref von Hofsten et al., 2022; read-out: EC50 hemolytic activity against human red blood cells; cited from earlier work
[3] = tested on: seven HNSCC cell lines and one normal oral fibroblast cell line (NOF); experiment: High throughput drug screening, statements on the whole panel; assay type: cell-based, human; conditions: DSS
Experimental: as §1

Bacillus subtilis 168 = experiment: Bacterial minimum inhibitory concentration (broth microdilution); assay type: cell-based; conditions: Bacillus subtilis 168, 48 h, 35 °C, di-TFA salts
Experimental: (§2) Method for determination of bacterial minimum inhibitory concentration (MIC) Stock solutions of the water-soluble compounds were prepared by dissolving them in ultrapure water (Milli-Q H2O, Millipore, MA, USA). The less water-soluble compounds were first dissolved in 25 - 50 µL 100% DMSO before further dilution with ultrapure water. The DMSO concentration was always less than 1% in the working concentration of each compound. A modified broth microdilution susceptibility test based on the CLSI M07-A9 protocol, [2] was used to determine minimal inhibitory concentrations (MIC). Briefly, the test compounds were two-fold diluted with ultrapure water in polystyrene 96-well flat-bottom microplates (NUNC, Roskilde, Denmark). The bacterial inoculum was diluted to 2.5 - 3 x 10^4 cells/mL in Mueller-Hinton broth (MHB, Difco Laboratories, USA) and added to the different diluted compounds in a ratio of 1:1. Positive control (ciprofloxacin, Sigma-Aldrich, USA), negative control (bacteria + water), and media control (media + water) were included in each experiment. The microplates were incubated for 48 h at 35 °C in an EnVision microplate reader (PerkinElmer, Waltham, MA, USA). The lowest concentration of compounds that caused no bacterial growth, as determined by optical density (OD600) measurements, was defined as the MIC value. All compounds were tested in 3 technical replicates.
(§3) Supplementary Video S1. HSC-3 cells were seeded at 100% confluence and a standard scratch wound migration assay was performed. The cells were imaged every 2 hours for 24 hours. The video

[4] = tested on: Staphylococcus aureus ATCC 9144; experiment: as above; assay type: cell-based; conditions: ATCC9144; Staphylococcus aureus ATCC 9144, 48 h, 35 °C, di-TFA salts
Experimental: as §2, §3

[5] = tested on: Escherichia coli ATCC 25922; experiment: as above; assay type: cell-based; conditions: ATCC25922; Escherichia coli ATCC 25922, 48 h, 35 °C, di-TFA salts
Experimental: as §2, §3

[6] = tested on: Pseudomonas aeruginosa ATCC 27853; experiment: as above; assay type: cell-based; conditions: ATCC27853; Pseudomonas aeruginosa ATCC 27853, 48 h, 35 °C, di-TFA salts
Experimental: as §2, §3

human red blood cells [7] = experiment: Hemolysis assay; assay type: cell-based; conditions: for EC50: Homo sapiens, Erythrocyte, 1 h, 37°C, highest concentration tested 500 μM, average of three experiments, read-out: EC50 hemolytic activity against human red blood cells
Experimental: The hemolytic effect of the MPMs was determined using a hemolysis assay as previously described ([Paulsen et al., 2021]). Briefly, hemolysis was determined using a heparinized fraction (10 IU/mL) of freshly drawn blood. The blood collected in ethylenediaminetetraacetic acid-containing test tubes (Vacutest, KIMA, Arzergrande, Italy) was used for the determination of the hematocrit (hct). The heparinized blood was washed 3 × with pre-warmed phosphate-buffered saline (PBS) and adjusted to a final hct of 4%. MPMs in DMSO (50 mM) were added to a 96-well polypropylene V-bottom plate (NUNC, Fisher Scientific, Oslo, Norway) and serially diluted. The test concentration range was 4–500 μM with DMSO contents ≤1%. A solution of 1% triton X-100 was used as a positive control for 100% hemolysis. As a negative control, a solution of 1% DMSO in PBS was included. Red blood cells (1% v/v final concentration) were added to the well plate and incubated at 37°C and 800 rpm for 1 h. After centrifugation (5 min, 3000 g), 100 μL from each well was transferred to a 96-well flat-bottomed microtiter plate, and absorbance was measured at 545 nm with a microplate reader (VersaMaxTM, Molecular Devices, Sunnyvale, CA, United States). The percentage of hemolysis was calculated as the ratio of the absorbance in the MPM treated and surfactant-treated samples, corrected for the PBS background. Three independent experiments were performed, and EC50 values are presented as averages.

| SMILES | drug sensitivity score (DSS) (UT-SCC-42A) | delta DSS (ΔDSS) (UT-SCC-42A) | drug sensitivity score (DSS) (UT-SCC-24A) | delta DSS (ΔDSS) (UT-SCC-24A) | drug sensitivity score (DSS) (UT-SCC-106A) | delta DSS (ΔDSS) (UT-SCC-106A) | drug sensitivity score (DSS) (UT-SCC-8) | delta DSS (ΔDSS) (UT-SCC-8) | drug sensitivity score (DSS) (UT-SCC-42B) | delta DSS (ΔDSS) (UT-SCC-42B) | drug sensitivity score (DSS) (HSC-3) | delta DSS (ΔDSS) (HSC-3) | drug sensitivity score (DSS) [1] | delta DSS (ΔDSS) [1] | drug sensitivity score (DSS) (UT-SCC-24B) | delta DSS (ΔDSS) (UT-SCC-24B) | MIC (Bacillus subtilis 168) [µg/mL] | MIC [4] [µg/mL] | MIC [5] [µg/mL] | MIC [6] [µg/mL] | also measured |
| --- | --- | --- | --- | --- | --- | --- | --- | --- | --- | --- | --- | --- | --- | --- | --- | --- | --- | --- | --- | --- | --- |
| NCCCCN1C(=O)N(CCCCN)C(=O)C(CCCc2ccccc2)(CCCc2ccccc2)C1=O [MPM-1] | 8,4 | -0,8 | 6,9 | -1,1 | 10,3 | 0,3 | 10 | -0,8 | 7,4 | 0,6 | 8,8 | 0 | 17,1 | 0,4 | 9,7 | 0,5 | – | – | – | – | EC50 (human red blood cells [2]): > 500 µM; selectivity for cancer cell lines over NOFs (in words) ([3]; cancer lines and NOFs cultured in different media): slight tendency towards selectivity for the NOFs, which was especially prominent for MPM-1 |
| CN(C)CCN1C(=O)N(CCN(C)C)C(=O)C(CCCc2ccccc2)(CCCc2ccccc2)C1=O [MPM-2:2] | 13,4 | 0,9 | 18,1 | -0,4 | 18,6 | -1,5 | 17 | 0,2 | 12,9 | -0,4 | 16,8 | 1,4 | 19,2 | -1,2 | 17,8 | -1,5 | 32 | > 64 | 32 | > 64 | EC50 (human red blood cells [7]): > 500 µM |
| NCCCN1C(=O)N(CCCN)C(=O)C(CCCc2ccccc2)(CCCc2ccccc2)C1=O [MPM-3:0] | 11,7 | -1,1 | 14,3 | -1,8 | 17,1 | -0,6 | 16,5 | -0,6 | 10,1 | -0,1 | 16,1 | 0 | 18,3 | -0,6 | 18 | -0,6 | 16 | 32 | 64 | 64 | EC50 (human red blood cells [7]): > 500 µM |
| CNCCCCN1C(=O)N(CCCCNC)C(=O)C(CCCc2ccccc2)(CCCc2ccccc2)C1=O [MPM-4:1] | 9,9 | -0,1 | 15,5 | -1,6 | 15,8 | -0,8 | 14,5 | 0,6 | 10,2 | -1,1 | 14,8 | -0,4 | 18,5 | -0,8 | 16,4 | -0,5 | 8 | 32 | > 64 | > 64 | EC50 (human red blood cells [7]): > 500 µM |
| C[N+](C)(C)CCCCN1C(=O)N(CCCC[N+](C)(C)C)C(=O)C(CCCc2ccccc2)(CCCc2ccccc2)C1=O [MPM-4:3] | 0,1 | 0 | 0 | 0 | 0,5 | -0,5 | 0 | 0 | 0,1 | -0,1 | 0 | 0 | 2,2 | -1,4 | 0 | 0,1 | > 64 | 64 | 64 | > 64 | EC50 (human red blood cells [7]): > 500 µM; potency / effect on viability over the cell line panel (in words) ([3]; 72 h): completely inactive |
| NCCCCCN1C(=O)N(CCCCCN)C(=O)C(CCCc2ccccc2)(CCCc2ccccc2)C1=O [MPM-5:0] | 13,5 | -0,8 | 17,4 | -1,2 | 17,9 | -1 | 18,1 | 0,4 | 11,5 | -0,5 | 17,6 | 0,2 | 19 | -1,2 | 18,2 | -0,5 | 4 | 8 | 32 | 32 | EC50 (human red blood cells [7]): 313 µM; hemolytic activity against red blood cells (in words) (human red blood cells [7]; test range 4–500 μM): the second lowest RBC EC50 |
